Experimental data reported in US9302991B2, “Arylamide derivatives as TTX-S blockers” (RaQualia Pharma Inc., priority 2010, dated 2016).

Tests used:
[1] = target: T1, human Nav1.7 channels (Homo sapiens, UniProt Q15858); experiment: FRET assay, human Nav1.7 (EFS on FDSS); type: cell-based; conditions: CHO cells expressing human Nav1.7, read-out: IC50 against Nav1.7
T1 construct: expressed in transfected cells; host or cells: CHO
In short: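 CHO cells stably expressing the channel, loaded with CC2-DMPE (10 µM) then DiSBAC2(3) (15 µM) plus VABSC-1, in HEPES-buffered saline pH 7.4 at room temperature. Electrical field stimulation on FDSS; FRET ratio at 440 nm fitted for IC50.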

[2] = target: T2, human Nav1.3 channels (Homo sapiens, UniProt Q9NY46); experiment: FRET assay, human Nav1.3 (EFS on FDSS); type: cell-based; conditions: HEK293 cells expressing human Nav1.3, read-out: IC50 against Nav1.3
T2 construct: expressed in transfected cells; host or cells: HEK293
In short: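 HEK293 cells expressing the channel, loaded with 10 microM CC2-DMPE then 15 microM DiSBAC2(3) plus 0.555 mM VABSC-1 in pH 7.4 HEPES buffer at room temperature. Membrane potential changes evoked by electrical field stimulation after compound addition; IC50 from 440 nm-normalized FRET ratios.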

T2 sequence (Q9NY46 whole entry): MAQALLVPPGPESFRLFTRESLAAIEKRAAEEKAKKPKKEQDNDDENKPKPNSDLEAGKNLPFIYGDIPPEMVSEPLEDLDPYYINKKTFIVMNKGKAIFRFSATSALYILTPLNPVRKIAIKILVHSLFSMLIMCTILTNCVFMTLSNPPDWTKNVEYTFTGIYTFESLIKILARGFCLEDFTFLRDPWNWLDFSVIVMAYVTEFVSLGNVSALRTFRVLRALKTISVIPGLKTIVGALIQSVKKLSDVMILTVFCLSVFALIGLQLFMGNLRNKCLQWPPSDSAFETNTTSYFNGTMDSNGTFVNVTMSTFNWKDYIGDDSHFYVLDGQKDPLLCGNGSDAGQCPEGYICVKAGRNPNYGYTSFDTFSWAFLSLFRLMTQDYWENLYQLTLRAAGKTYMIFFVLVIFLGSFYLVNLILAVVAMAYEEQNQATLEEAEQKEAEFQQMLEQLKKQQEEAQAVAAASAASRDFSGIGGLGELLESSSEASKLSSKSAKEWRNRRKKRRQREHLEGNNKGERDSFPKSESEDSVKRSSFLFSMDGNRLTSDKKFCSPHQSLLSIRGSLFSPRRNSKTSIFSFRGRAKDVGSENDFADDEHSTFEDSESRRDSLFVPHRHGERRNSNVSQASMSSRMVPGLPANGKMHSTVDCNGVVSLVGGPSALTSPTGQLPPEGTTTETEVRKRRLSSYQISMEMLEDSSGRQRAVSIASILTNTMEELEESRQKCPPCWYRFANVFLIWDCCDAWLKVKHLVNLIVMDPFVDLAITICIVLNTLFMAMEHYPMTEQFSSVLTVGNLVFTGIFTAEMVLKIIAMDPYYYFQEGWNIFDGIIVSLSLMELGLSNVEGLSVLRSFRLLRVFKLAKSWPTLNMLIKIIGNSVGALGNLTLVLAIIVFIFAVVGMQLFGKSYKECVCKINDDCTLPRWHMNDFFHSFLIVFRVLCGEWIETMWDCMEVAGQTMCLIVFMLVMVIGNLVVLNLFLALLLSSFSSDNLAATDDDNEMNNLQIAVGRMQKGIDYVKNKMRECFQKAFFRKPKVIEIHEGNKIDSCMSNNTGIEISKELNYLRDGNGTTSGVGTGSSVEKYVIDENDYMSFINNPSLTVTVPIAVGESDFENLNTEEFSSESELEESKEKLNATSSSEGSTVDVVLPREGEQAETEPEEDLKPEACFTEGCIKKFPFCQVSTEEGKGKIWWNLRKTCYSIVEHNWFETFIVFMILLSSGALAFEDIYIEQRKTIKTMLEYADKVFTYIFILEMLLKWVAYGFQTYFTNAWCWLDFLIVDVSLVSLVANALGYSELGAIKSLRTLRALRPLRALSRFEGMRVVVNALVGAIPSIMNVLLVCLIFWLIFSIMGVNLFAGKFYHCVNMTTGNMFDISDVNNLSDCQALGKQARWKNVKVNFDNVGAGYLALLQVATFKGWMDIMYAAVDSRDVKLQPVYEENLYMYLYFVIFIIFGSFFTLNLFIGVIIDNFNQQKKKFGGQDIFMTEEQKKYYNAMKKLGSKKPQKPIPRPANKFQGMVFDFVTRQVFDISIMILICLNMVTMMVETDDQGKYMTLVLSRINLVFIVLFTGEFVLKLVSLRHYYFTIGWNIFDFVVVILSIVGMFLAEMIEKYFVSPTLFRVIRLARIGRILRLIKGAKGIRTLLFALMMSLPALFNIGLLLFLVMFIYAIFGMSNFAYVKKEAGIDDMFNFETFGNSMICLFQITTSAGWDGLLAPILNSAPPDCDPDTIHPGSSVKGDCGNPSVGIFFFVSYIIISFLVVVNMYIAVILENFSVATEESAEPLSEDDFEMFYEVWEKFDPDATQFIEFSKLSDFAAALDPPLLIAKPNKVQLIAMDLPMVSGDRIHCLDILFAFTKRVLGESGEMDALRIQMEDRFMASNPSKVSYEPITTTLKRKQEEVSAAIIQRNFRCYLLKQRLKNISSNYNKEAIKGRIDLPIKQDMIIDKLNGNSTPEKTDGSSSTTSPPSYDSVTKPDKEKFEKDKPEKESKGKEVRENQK
T1 sequence (Q15858 whole entry): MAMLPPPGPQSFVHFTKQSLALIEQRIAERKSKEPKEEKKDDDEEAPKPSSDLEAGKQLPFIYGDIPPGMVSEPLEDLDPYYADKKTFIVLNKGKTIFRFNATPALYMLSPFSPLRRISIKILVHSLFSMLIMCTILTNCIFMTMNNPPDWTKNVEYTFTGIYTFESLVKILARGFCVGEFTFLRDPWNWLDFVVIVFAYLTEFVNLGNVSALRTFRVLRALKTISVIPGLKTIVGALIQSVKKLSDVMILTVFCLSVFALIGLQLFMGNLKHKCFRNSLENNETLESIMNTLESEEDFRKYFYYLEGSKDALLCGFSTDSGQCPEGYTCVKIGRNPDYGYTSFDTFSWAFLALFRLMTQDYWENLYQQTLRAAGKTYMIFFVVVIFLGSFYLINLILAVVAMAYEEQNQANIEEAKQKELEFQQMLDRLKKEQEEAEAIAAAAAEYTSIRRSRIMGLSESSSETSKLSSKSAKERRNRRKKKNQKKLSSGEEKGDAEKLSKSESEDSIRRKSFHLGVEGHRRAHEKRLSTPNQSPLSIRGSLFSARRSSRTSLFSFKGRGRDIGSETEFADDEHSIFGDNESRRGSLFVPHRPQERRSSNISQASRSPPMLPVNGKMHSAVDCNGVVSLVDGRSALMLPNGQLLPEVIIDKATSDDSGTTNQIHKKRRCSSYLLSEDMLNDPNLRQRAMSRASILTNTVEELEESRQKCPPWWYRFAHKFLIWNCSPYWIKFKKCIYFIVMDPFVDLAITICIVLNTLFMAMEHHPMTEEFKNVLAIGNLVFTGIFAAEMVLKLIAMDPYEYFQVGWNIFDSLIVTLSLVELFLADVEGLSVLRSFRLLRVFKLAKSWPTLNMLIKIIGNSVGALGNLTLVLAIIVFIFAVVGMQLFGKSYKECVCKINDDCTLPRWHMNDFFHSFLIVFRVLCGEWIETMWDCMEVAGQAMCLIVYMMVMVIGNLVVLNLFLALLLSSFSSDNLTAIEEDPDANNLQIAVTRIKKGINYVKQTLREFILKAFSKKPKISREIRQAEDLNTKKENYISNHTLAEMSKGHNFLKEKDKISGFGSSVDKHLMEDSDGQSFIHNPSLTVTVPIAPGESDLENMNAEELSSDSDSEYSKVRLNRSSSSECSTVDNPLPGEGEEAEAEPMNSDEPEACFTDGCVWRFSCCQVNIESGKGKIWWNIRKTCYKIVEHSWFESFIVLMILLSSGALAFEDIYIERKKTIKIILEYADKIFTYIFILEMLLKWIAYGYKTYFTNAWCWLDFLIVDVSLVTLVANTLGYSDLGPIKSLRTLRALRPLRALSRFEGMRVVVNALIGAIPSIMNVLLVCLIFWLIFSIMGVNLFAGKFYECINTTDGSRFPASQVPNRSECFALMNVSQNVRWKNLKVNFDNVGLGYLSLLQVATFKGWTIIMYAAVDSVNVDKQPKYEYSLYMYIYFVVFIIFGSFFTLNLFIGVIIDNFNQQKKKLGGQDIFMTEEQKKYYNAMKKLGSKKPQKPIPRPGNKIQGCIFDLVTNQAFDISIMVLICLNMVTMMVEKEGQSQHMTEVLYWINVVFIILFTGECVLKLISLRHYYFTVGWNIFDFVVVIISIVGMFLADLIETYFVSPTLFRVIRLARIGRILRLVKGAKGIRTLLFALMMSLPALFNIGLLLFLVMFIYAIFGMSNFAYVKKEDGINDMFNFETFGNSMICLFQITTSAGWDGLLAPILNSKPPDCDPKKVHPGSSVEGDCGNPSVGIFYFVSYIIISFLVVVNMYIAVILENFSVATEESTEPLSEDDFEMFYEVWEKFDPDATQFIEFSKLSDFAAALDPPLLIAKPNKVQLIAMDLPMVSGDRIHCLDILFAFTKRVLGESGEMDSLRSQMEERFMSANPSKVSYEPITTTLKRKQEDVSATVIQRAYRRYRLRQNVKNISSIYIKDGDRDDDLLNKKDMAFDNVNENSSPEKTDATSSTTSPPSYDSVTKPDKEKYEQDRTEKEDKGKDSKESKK

Structure (SMILES)	IC50 [1]	IC50 [2]
O=C(NCc1cccc(OC(F)(F)F)c1)c1ccnc(NC(=O)C2CC2)c1 [Example 524, 2-(cyclopropanecarboxamido)-N-(3-(trifluoromethoxy)benzyl)isonicotinamide]	< 1 µM	< 1 µM
Cc1cc(C(=O)NC(C)c2cnc(OCC(F)(F)C(F)F)c(C)c2)cc(NC(=O)C(C)C)n1 (single isomer, unassigned) [Example 905, 2-isobutyramido-6-methyl-N-(1-(5-methyl-6-(2,2,3,3-tetrafluoropropoxy)pyridin-3-yl)ethyl)isonicotinamide]	< 1 µM	< 1 µM
CC(=O)Nc1cc(C(=O)NCc2cnc(OCC(F)(F)F)c(Br)c2)cc(C)n1 [Example 899, 2-acetamido-N-((5-bromo-6-(2,2,2-trifluoroethoxy)pyridin-3-yl)methyl)-6-methylisonicotinamide]	< 1 µM	< 1 µM
O=C(NCc1ccc(OCC(F)(F)F)nc1)c1ccnc(NC(=O)C2CC2)c1 [Example 152, 2-(cyclopropanecarboxamido)-N-((6-(2,2,2-trifluoroethoxy)pyridin-3-yl)methyl)isonicotinamide]	< 1 µM	< 1 µM
Cc1cc(C(=O)NCc2cnc(OCC(F)(F)C(F)F)c(C)c2)cc(NC(=O)C2CC2)n1 [Example 946, 2-(cyclopropanecarboxamido)-6-methyl-N-((5-methyl-6-(2,2,3,3-tetrafluoropropoxy)pyridin-3-yl)methyl)isonicotinamide]	< 1 µM	< 1 µM
Cc1cc(CNC(=O)c2ccnc(NC(=O)C3CC3)n2)ccc1OC(F)(F)F [Example 810, 2-(cyclopropanecarboxamido)-N-(3-methyl-4-(trifluoromethoxy)benzyl)pyrimidine-4-carboxamide]	< 1 µM	< 1 µM
CC(=O)Nc1cc(C(=O)NCc2ccc(OCC(F)(F)F)c(C)c2)cc(C)n1 [Example 792, 2-acetamido-6-methyl-N-(3-methyl-4-(2,2,2-trifluoroethoxy)benzyl)isonicotinamide]	< 1 µM	< 1 µM
CC(=O)Nc1nc(C)cc(C(=O)NC(C)c2cnc(OCC(F)(F)F)c(C)c2)n1 (single isomer, unassigned) [Example 235, 2-acetamido-6-methyl-N-(1-(5-methyl-6-(2,2,2-trifluoroethoxy)pyridin-3-yl)ethyl)pyrimidine-4-carboxamide]	< 1 µM	< 1 µM
Cc1cc(CNC(=O)c2ccnc(NC(=O)C3CC3)n2)cnc1OCC(F)(F)C(F)F [Example 943, 2-(cyclopropanecarboxamido)-N-((5-methyl-6-(2,2,3,3-tetrafluoropropoxy)pyridin-3-yl)methyl)pyrimidine-4-carboxamide]	< 1 µM	< 1 µM
CCC(=O)Nc1cc(C(=O)NCc2cccc(OCC(F)(F)F)n2)cc(C)n1 [Example 467, 2-methyl-6-propionamido-N-((6-(2,2,2-trifluoroethoxy)pyridin-2-yl)methyl)isonicotinamide]	< 1 µM	< 1 µM
Cc1cc(CNC(=O)c2ccnc(NC(=O)C3CC3)n2)cnc1OCC(F)(F)F [Example 564, 2-(cyclopropanecarboxamido)-N-((5-methyl-6-(2,2,2-trifluoroethoxy)pyridin-3-yl)methyl)pyrimidine-4-carboxamide]	< 1 µM	< 1 µM
Cc1cc(C(=O)NCc2cnc(OCC(F)(F)C(F)F)c(C)c2)cc(NC(=O)C(C)C)n1 [Example 945, 2-isobutyramido-6-methyl-N-((5-methyl-6-(2,2,3,3-tetrafluoropropoxy)pyridin-3-yl)methyl)isonicotinamide]	< 1 µM	< 1 µM
Cc1cc(C(C)NC(=O)c2ccnc(NC(=O)C(C)C)c2)cnc1OCC(F)(F)C(F)F (single isomer, unassigned) [Example 904, 2-isobutyramido-N-(1-(5-methyl-6-(2,2,3,3-tetrafluoropropoxy)pyridin-3-yl)ethyl)isonicotinamide]	< 1 µM	< 1 µM
CCNC(=O)c1cc(C(=O)NCc2ccc(OCC(F)(F)F)nc2OC)cc(C)n1 [Example 508, N2-ethyl-N4-((2-methoxy-6-(2,2,2-trifluoroethoxy)pyridin-3-yl)methyl)-6-methylpyridine-2,4-dicarboxamide]	–	< 1 µM
O=C(NCc1cc(C(F)(F)F)ccc1F)c1ccnc(NC(=O)C2CC2)c1 [Example 573, 2-(cyclopropanecarboxamido)-N-(2-fluoro-5-(trifluoromethyl)benzyl)isonicotinamide]	–	< 1 µM
CCC(=O)Nc1cc(C(=O)NCc2cccc(OCC(F)(F)F)n2)ccn1 [Example 464, 2-propionamido-N-((6-(2,2,2-trifluoroethoxy)pyridin-2-yl)methyl)isonicotinamide]	–	< 1 µM
CCCC(=O)Nc1cc(C(=O)NCc2cccc(OCC(F)(F)F)n2)ccn1 [Example 469, 2-butyramido-N-((6-(2,2,2-trifluoroethoxy)pyridin-2-yl)methyl)isonicotinamide]	–	< 1 µM

The next lines start with the values.

IC50 [1]	IC50 [2]	Structure (SMILES)
< 1 µM	< 1 µM	CCCC(=O)Nc1cc(C(=O)NCc2cnc(OCC(F)F)c(C)c2)ccn1 [Example 757, 2-butyramido-N-((6-(2,2-difluoroethoxy)-5-methylpyridin-3-yl)methyl)isonicotinamide]
< 1 µM	< 1 µM	COc1nc(OCC(F)(F)F)ccc1CNC(=O)c1ccnc(NC(=O)C2CC2)c1 [Example 147, 2-(cyclopropanecarboxamido)-N-((2-methoxy-6-(2,2,2-trifluoroethoxy)pyridin-3-yl)methyl)isonicotinamide]
< 1 µM	< 1 µM	CC(=O)Nc1cc(C(=O)NCc2cnc(OCC(F)(F)C(F)F)c(C)c2)ccn1 [Example 939, 2-acetamido-N-((5-methyl-6-(2,2,3,3-tetrafluoropropoxy)pyridin-3-yl)methyl)isonicotinamide]
< 1 µM	< 1 µM	COc1cc(CNC(=O)c2cc(C)nc(NC(=O)C(C)C)c2)cnc1OCC(F)(F)F [Example 492, 2-isobutyramido-N-((5-methoxy-6-(2,2,2-trifluoroethoxy)pyridin-3-yl)methyl)-6-methylisonicotinamide]
< 1 µM	< 1 µM	CCc1cc(CNC(=O)c2cc(C)nc(NC(=O)C(C)C)c2)cnc1OCC(F)F [Example 911, N-((6-(2,2-difluoroethoxy)-5-ethylpyridin-3-yl)methyl)-2-isobutyramido-6-methylisonicotinamide]
< 1 µM	< 1 µM	CC(=O)Nc1cc(C(=O)NCc2cc(C)cc(OC(F)(F)F)c2)cc(C)n1 [Example 602, 2-acetamido-6-methyl-N-(3-methyl-5-(trifluoromethoxy)benzyl)isonicotinamide]
< 1 µM	< 1 µM	Cc1cc(C(=O)NCc2cccc(C(F)(F)F)c2)cc(NC(=O)C(C)C)n1 [Example 534, 2-isobutyramido-6-methyl-N-(3-(trifluoromethyl)benzyl)isonicotinamide]
< 1 µM	< 1 µM	CC(=O)Nc1cc(C(=O)NCc2cnc(OCC(F)(F)F)c(C)c2)cc(C)n1 [Example 371, 2-acetamido-6-methyl-N-((5-methyl-6-(2,2,2-trifluoroethoxy)pyridin-3-yl)methyl)isonicotinamide]
< 1 µM	< 1 µM	CCC(=O)Nc1cc(C(=O)NCc2ccc(OCC(F)(F)F)nc2)cc(C)n1 [Example 153, 2-methyl-6-propionamido-N-((6-(2,2,2-trifluoroethoxy)pyridin-3-yl)methyl)isonicotinamide]
< 1 µM	< 1 µM	CCC(=O)Nc1cc(C(=O)NC(C)c2cnc(OCC(F)(F)F)c(C)c2)ccn1 (single isomer, unassigned) [Example 87, N-(1-(5-methyl-6-(2,2,2-trifluoroethoxy)pyridin-3-yl)ethyl)-2-propionamidoisonicotinamide]
< 1 µM	< 1 µM	CC(=O)Nc1cc(C(=O)NCc2cccc(OC(F)(F)F)c2)cc(C)n1 [Example 525, 2-acetamido-6-methyl-N-(3-(trifluoromethoxy)benzyl)isonicotinamide]
< 1 µM	< 1 µM	Cc1cc(C(=O)NCc2ccc(OCC(F)(F)F)nc2)cc(NC(=O)C(C)C)n1 [Example 483, 2-isobutyramido-6-methyl-N-((6-(2,2,2-trifluoroethoxy)pyridin-3-yl)methyl)isonicotinamide]
< 1 µM	< 1 µM	O=C(NCc1cnc(OCC(F)(F)F)c(Br)c1)c1ccnc(NC(=O)C2CC2)c1 [Example 896, N-((5-bromo-6-(2,2,2-trifluoroethoxy)pyridin-3-yl)methyl)-2-(cyclopropanecarboxamido)isonicotinamide]
< 1 µM	< 1 µM	Cc1cc(C(C)NC(=O)c2ccnc(NC(=O)C(C)C)c2)cnc1OCC(F)F (single isomer, unassigned) [Example 555, N-(1-(6-(2,2-difluoroethoxy)-5-methylpyridin-3-yl)ethyl)-2-isobutyramidoisonicotinamide]
< 1 µM	< 1 µM	Cc1cc(C(=O)NC(C)c2cnc(OCC(F)(F)F)c(C)c2)nc(Nc2ncco2)n1 (single isomer, unassigned) [Example 456, 6-methyl-N-(1-(5-methyl-6-(2,2,2-trifluoroethoxy)pyridin-3-yl)ethyl)-2-(oxazol-2-ylamino)pyrimidine-4-carboxamide]
< 1 µM	< 1 µM	CCC(=O)Nc1cc(C(=O)N[C@H](C)c2cccc(C(F)(F)F)c2)cc(C)n1 (single isomer, unassigned) [Example 126]
